Experimental data: patent publication US12692283B2, “Lignan derivative, preparation method therefor and use thereof” (SHANGHAI INSTITUTE OF MATERIA MEDICA, CHINESE ACADEMY OF …, priority 2021, dated 2026)

Tests used:
Assay type in all cases: in vivo, mouse
[1] = system: mice with oxazolone-induced enteritis; assay: Efficacy in mice with oxazolone-induced inflammatory bowel disease; conditions: intragastric 1 mg/kg/day
Procedure: Experimental animals: 30 male C57 mice, 8 weeks old.
Modeling and administration: 3% Oxazolone was dissolved in the solvent (acetone:olive oil, 1:4). After the mouse was anesthetized, the hair on the shoulder of the mouse was removed, and then 150 μL of Oxazolone with a mass fraction of 3% was added dropwise. On the 8th day after treatment, 1% Oxazolone was dissolved in a solvent (ethanol:sterilized water, 1:1). After the mice were anesthetized, 150 μL of 1% Oxazolone was administered rectally to create a model. The modeling mice were divided into two groups, with 10 mice in each group. One group was given compound A5 by gavage at 1 mg/kg/day, one group was given physiological saline, and the other group of 10 mice without modeling was used as a control group. Starting from the day of modeling, the weight of the mice was recorded every day. The feces of the mice were collected on the third day after rectal administration to observe the softness of the feces and whether there was bleeding. […]
Mouse enteritis disease activity index score: Mice were scored based on the degree of weight loss of the mouse (0: normal; 1:1-5%; 2:6-10%; 3:11-18%; 4: >18%), the degree of the softness of the feces (0: normal; 2: soft; 4: diarrhea), and the degree of feces bleeding (0: normal; 2: occult blood; 4: bloody stool), then each score was added and divide by three. […]

[2] = system: mice with liver fibrosis induced by carbon tetrachloride; assay: Efficacy in mice with carbon tetrachloride-induced liver fibrosis; conditions: intragastric 1 mg/kg/day and 3 mg/kg/day for 3 weeks
Procedure: Experimental animals: 40 male C57 mice, 8 weeks old.
Modeling and administration: 400 μL of carbon tetrachloride (CCl4) was added to 3.6 mL of olive oil, mixed well, and then injected intraperitoneally at 0.1 mL/20 g, twice a week for six weeks. Six weeks later, 30 mice were divided into 3 groups, with 10 mice in each group. They were given physiological saline by gavage, 1 mg/kg A5 and 3 mg/kg A5. In addition, 10 mice that were not induced were given physiological saline as a control group. After 3 weeks of continuous administration, the mice were sacrificed, and the livers were removed, weighed, fixed and embedded, and the remaining liver tissue was cryopreserved for detection of hydroxyproline content.
Masson staining of mouse liver tissue: The mouse liver tissue was paraffin-embedded according to conventional methods, and sections were subjected to Masson staining. The specific procedures were as follows. […]
Detection of hydroxyproline content in mouse liver tissue: A hydroxyproline detection kit (Nanjing Jiancheng Bioengineering Institute) was used. […] Absorbance values of the supernatant at a wavelength of 550 nm were determined using a microplate reader. The hydroxyproline content per 100 mg of liver tissue was then calculated.

[3] = Oral pharmacokinetics of phosphate prodrug A5 in ICR mice (plasma and tissues); conditions: oral 30 mg/kg
Procedure: Compound A5 (30 mg/kg) was administered orally to overnight fasted ICR mice (male, n=3/time point). The mice were fed 2 hours after administration. Samples were collected before administration and 1 h, 2 h, 4 h, and 8 h after administration. Blood was collected in centrifuge tubes pretreated with heparin sodium and bis(4-nitrophenyl)phosphate (BNPP). After centrifugation at 11,000 rpm for 5 min at 4° C., plasma was obtained and stored at −80° C. Next, 100 […] of plasma sample, precipitated, vortexed for 1 min, and centrifuged (11,000 rpm) for 5 min. A mixture of 20 […] of methanol/acetonitrile (1:1, v/v) was taken to analyze the concentrations of compound A5 and compound A4-1a by LC-MS/MS. Heart (blood emptying), liver, and lung tissues were stored at −80° C. until analysis. After removal of contents, the duodenum and colon were quickly washed with cold saline containing BNPP and stored at −80° C. until analysis. […] 20 μL of the supernatant was redissolved in 20 μL of ACN/H2O (1:1, v/v), and the concentrations of compound A5 and compound A4-1a were analyzed by LC-MS/MS.

COc1ccc(C[C@H]2COC(=O)[C@]2(C)Cc2ccc(OP(=O)(O)O)c(OC)c2)cc1OC [Compound A5, 4-(((3R,4R)-4-(3,4-dimethoxybenzyl)-3-methyl-2-oxotetrahydrofuran-3-yl)methyl)-2-methoxyphenyl dihydrogen phosphate]
colon pathology score [1]: significantly reduce the colon pathology score | disease activity index of enteritis [1]: significantly reduce the disease activity index | hydroxyproline (HYP) content in liver tissue [2]: significantly reduce the increase in hydroxyproline content | positive rate of Masson staining in liver (degree of liver fibrosis) [2]: significantly reduce the degree of liver fibrosis | drug concentration in plasma and various tissues [3]: good drug concentration in plasma and various tissues
